Literature values, collected in patent US20080207644A1, “Therapeutic materials and methods” (priority 2006, published 2008).

Legend:
cancers = conditions: for mouth sores as side effect: human studies; for results in human studies: single agents or combinations, treatment of a variety of cancers
[1] = oral doses of 10-100 mg/kg
[2] = 30 mg/kg oral
[3] = tested on: a variety of malignancies; conditions: intravenous 0.7 to 1.3 mg/m^2/dose biweekly

Structure (SMILES) | mouth sores as side effect (cancers) | results in human studies (cancers) | also measured
CO[C@H]1C[C@@H]2CC[C@@H](C)[C@@](O)(O2)C(=O)C(=O)N2CCCC[C@H]2C(=O)O[C@H]([C@H](C)C[C@@H]2CC[C@@H](OP(C)(C)=O)[C@H](OC)C2)CC(=O)[C@H](C)/C=C(\C)[C@@H](O)[C@@H](OC)C(=O)[C@H](C)C[C@H](C)/C=C/C=C/C=C/1C [AP23573] | dose limiting toxicity | positive results | 
Cc1ccc2nc(NCCN)c3ncc(C)n3c2c1 [BMS-345541] |  |  | efficacy in mouse studies [1]: effective
COc1cccc2nc(-c3cccs3)nc(NN3C(=O)CC(C)C3=O)c12 (stereo not drawn) [SPC-839] |  |  | oral efficacy in a rat model [2]: oral efficacy
CC(C)C[C@H](NC(=O)[C@H](Cc1ccccc1)NC(=O)c1cnccn1)B(O)O [Velcade] |  |  | activity against malignancies [3]: activities against a variety of malignancies
CO[C@H]1C[C@@H]2CC[C@@H](C)[C@@](O)(O2)C(=O)C(=O)N2CCCC[C@H]2C(=O)O[C@H]([C@H](C)C[C@@H]2CC[C@@H](OCCO)[C@H](OC)C2)CC(=O)[C@H](C)/C=C(\C)[C@@H](O)[C@@H](OC)C(=O)[C@H](C)C[C@H](C)/C=C/C=C/C=C/1C [everolimus] | dose limiting toxicity | positive results | 
CO[C@H]1C[C@@H]2CC[C@@H](C)[C@@](O)(O2)C(=O)C(=O)N2CCCC[C@H]2C(=O)O[C@H]([C@H](C)C[C@@H]2CC[C@@H](OC(=O)C(C)(CO)CO)[C@H](OC)C2)CC(=O)[C@H](C)/C=C(\C)[C@@H](O)[C@@H](OC)C(=O)[C@H](C)C[C@H](C)/C=C/C=C/C=C/1C [temsirolimus] | dose limiting toxicity | positive results | 
